Results as given in US6635615B1, “Stable salts of S-adenosyl-l-methionine” (priority 1999, dated 2003).
Blank lines part the entries; values can stand above or below the compound they belong to.

Columns and labels:
[1] = Stability on storage at room temperature, HPLC analysis of SAM-e concentration; assay type: physicochemical
Text: (§1) SAM-e-1, 4-butane-disulphonate and chitosan salt of SAM-e 1, 4-butane-disulphonate were stored at room temperature, in a closed, clear glass vial at constant humidity. HPLC analysis done according to Bottligleri, T. (1990) Isocratic high performance liquid chromatographic analysis of S-adenosylmethionine and S-adenosylhomocysteine in animal tissues: the effect of exposure to nitrous oxide. Biomed Chromatogr, 4(6):239-41.
Stability study-of polycation (chitosan) salt of SAM-e tosylate
as §1, with “SAM-e tosylate” for “SAM-e-1, 4-butane-disulphonate”, “tosylate” for “1, 4-butane-disulphonate”

[2] = oral; alcoholic liver cirrhosis; compared with a placebo treated group; cited from earlier work
[3] = oral; patients with and without liver disease; cited from earlier work
[4] = preliminary study; cited from earlier work
[5] = oral; patients with intrahepatic cholestasis; cited from earlier work
[6] = oral; short term trial; cited from earlier work

deteriorated by (over the period of time) ([1]; Example 11, text, room temperature storage Dec. 28, 1999 to Apr. 4, 2000): 92.9%
Analysis: Dec. 28, 1999 Concentration 0.5 mg/ml 1:125 ([1]; Example 11, first analysis Dec. 28, 1999, 0.5 mg/ml, dilution 1:125, HPLC): 3492 nmol/L
Analysis: Apr. 4, 2000 Concentration 0.5 mg/ml 1:125 ([1]; Example 11, second analysis Apr. 4, 2000, stored at room temperature, closed clear glass vial, constant humidity, 0.5 mg/ml, 1:125): 247.9 nmol/L
Structure (SMILES): C[S+](CC[C@H](N)C(=O)O)C[C@H]1O[C@@H](n2cnc3c(N)ncnc32)[C@H](O)[C@@H]1O.Cc1ccc(S(=O)(=O)[O-])cc1 (stereo partly drawn) [SAM-e tosylate]

Structure (SMILES): C[S+](CC[C@H](N)C(=O)[O-])C[C@H]1O[C@@H](n2cnc3c(N)ncnc32)[C@H](O)[C@@H]1O (stereo partly drawn) [SAM-e, S-adenosyl-1-methionine]
overall mortality and/or progression to liver transplant [2]: 29% vs 12%
liver glutathione levels [3]: increases in liver glutathione levels
cognitive effect in patients with Alzheimer's disease [4]: cognitive improvement
pruritus and biochemical markers of cholestasis [5]: improvements in both the pruritus as well as the biochemical markers of cholestasis
clinical effect in primary fibromyalgia [6]: significant improvement

Structure (SMILES): C[S+](CC[C@H](N)C(=O)[O-])C[C@H]1O[C@@H](n2cnc3c(N)ncnc32)[C@H](O)[C@@H]1O.O=S(=O)(O)CCCCS(=O)(=O)O (stereo partly drawn) [SAM-e-1,4-butane-disulphonate]
deteriorated by (over the period of time) ([1]; Example 10, text, room temperature storage May 11, 2000 to Aug. 22, 2000): 43%
% Change ([1]; Example 10, May 11, 2000 to Aug. 22, 2000, room temperature, closed clear glass vial, constant humidity): −43.9%
Analysis: May 11, 2000 Concentration 1:500 ([1]; Example 10, first analysis May 11, 2000, dilution 1:500, HPLC): 1417.96 nmol/L
Analysis: Aug. 22, 2000 Concentration 1:500 ([1]; Example 10, second analysis Aug. 22, 2000, stored at room temperature, closed clear glass vial, constant humidity, dilution 1:500): 794.41 nmol/L
